Measured values taken from US10214540B2, “Compound having agonistic activity on somatostatin receptor, and use thereof for medical purposes” (ONO PHARMACEUTICAL CO., LTD., priority 2012, dated 2019).

Columns and labels:
[1] = tested on: Growth Hormone (GH) secretion; test: Evaluation of Growth Hormone (GH) secretory inhibitory activity using rat (GHRH-evoked); type: in vivo
Description: Evaluation of Growth Hormone (GH) secretory inhibitory activity using rat.
Test compounds dissolved in vehicle (distillated water (Otsuka jouryuusui, Otsuka Pharmaceutical Factory, Inc.) or vehicle only was administered to rat (7-week-old, male Crl: CD (SD) IGS rat (CHARLES RIVER LABORATORIES JAPAN, INC.)) orally, and 27 min. later, 50 mg/kg of sodium pentobarbital (Somunopentil® Kyoritsu Seiyaku) was administered by tail vein injection to be anesthetized. Three minutes after administration of sodium pentobarbital, 0.01 mg/kg of growth hormone-releasing hormone (GHRH, Bachem) was administered by tail vein injection to evoke GH secretion. To measure blood concentration of GH, 0.2 mL blood sample from cervical vein was collected 5 minutes after administration of GHRH. The blood samples were treated with centrifugation at 13,000 g at 4° C. for 5 min. to obtain plasma sample. Blood concentration of GH was determined by Rat/Mouse Growth Hormone ELISA (Millipore) according to the procedure manual.
Test compounds dissolved in vehicle (distillated water (Otsuka jouryuusui, Otsuka Pharmaceutical Factory, Inc.) or vehicle only was administered to rat (7-week-old, male Crl: CD (SD) IGS rat (CHARLES RIVER LABORATORIES JAPAN, INC.)) orally, and 7 hours 57 minutes later, 50 mg/kg of sodium pentobarbital (Somunopentil® Kyoritsu Seiyaku) was administered by tail vein injection to be anesthetized. Three min. after administration of sodium pentobarbital, 0.01 mg/kg of growth hormone-releasing hormone (GHRH, Bachem) was given by tail vein injection to evoke GH secretion. Procedure after that was same as [Procedure (A)]

[2] = Evaluation of the cell toxicity using cultured human hepatocyte (ATP, Celltiter-Glo); type: cell-based; details: cultured adherent human hepatocytes (thawed from frozen); cultured human hepatocytes, 24 hours, ATP concentration; read-out: IC50 (50% inhibitory compound concentration of the emission of light, cell toxicity)
Description: (§1) Evaluation of the cell toxicity using cultured human hepatocyte.
(§2) Frozen adherent human hepatocyte was thawed and suspended in hepatocyte cultured medium (HCM) purchased from Lonza, and then seeded in 96 wells plate coated by collagen. The hepatocytes were cultured overnight in the incubator (5% carbon dioxide, 95% air, 37° C.) and its medium was replaced with medium including test compounds ([…]) and cultured for 24 hours more. The cell toxicity was evaluated by measurement of ATP concentration in the cells. Specifically, using Promega Celltiter-Glo luminescent assay kit made by Promega KK, the cells were dissolved in an accompanying assay buffer and the ATP concentration released from the cells was determined by an emission of light of the luciferin-luciferase enzyme activity. The emission of light was measured by Molecular device's SpectraMax plate reader. A degree of toxicity was shown 50% inhibitory compound concentration of the emission of light (IC50).

[3] = tested on: cultured human hepatocyte; test: as above; type: cell-based; details: IC50 of Biological Example 4 / EC50 of Biological Example 1
Description: as §1, §2

human SSTR2 = target: T1, human SSTR2 (Homo sapiens, UniProt P30874); test: Evaluation of SSTR2 agonist activity using human SSTR2 expressing cells (inhibition of Forskolin-stimulated cAMP production in SSTR2-CHO-K1); type: cell-based; details: read-out: EC50 of agonist activity against human SSTR2
T1 construct: Myc; expressed in transfected cells
Description: Evaluation of SSTR2 Agonist Activity Using Human SSTR2 Expressing Cells
CHO-K1 (−) were cultured using Ham's F-12 (including FBS (10%), penicillin (100 U/mL) and streptomycin (0.1 mg/mL)) as medium. The transduced cells were cultured using the medium above with geneticin (1 mg/ml).
The plasmid pIRESneo-Myc/hSSTR2 was transduced into CHO-K1 (−) cell using Lipofectamine 2000 (Invitrogen). After 48 hours, the medium was changed to the medium including 1 mg/mL Geneticin, overexpressing cells were selected and stably overexpressing cells (SSTR2-CHO-K1) were established.
Human SSTR2 agonist activity of test compounds was evaluated by following procedure using inhibition activity against intracellular cyclic AMP (cAMP) production stimulated by Forskolin as an indicator. The SSTR2-CHO-K1 cells suspended in Ham's F-12 medium (including fetal bovine serum (10%), penicillin (100 U/mL), streptomycin (0.1 mg/mL)) including 0.25 mg/mL Geneticin was seeded in 96 wells plate (4.0×10^4 cells/0.1 mL/1 well). After 1 day, the medium was removed and the cells were washed with 0.1 mL of wash buffer solution [0.1% bovine serum albumin (BSA), Hank's Balanced Salt Solution (HBSS) including 20 mmol/L 4-(2-hydroxyethyl)-1-piperazine ethanesulfonic acid (HEPES)] twice. To the cells added 0.06 mL/well assay buffer [500 nmol/L 3-isobutyl-1-methylxanthine (IBMX), 0.1% BSA, 20 mmol/L HBSS including HEPES], and incubated for 15 min. under 5% CO2 and 37° C. Next, to the cells added 0.06 mL/well assay buffer including test compounds of the double concentration of final concentration and 0.02 mmol/L Forskolin, and incubated for 30 min. under 5% CO2 and 37° C. After that, to the cells added 0.12 mL/well Assay/Lysis buffer included with cAMP-Screen® kit (Applied Biosystems®), and incubated for 30 min. under 5% CO2 and 37° C. The concentration of c-AMP is determined by ELISA test according to manual included with the kit.

gastric acid secretion = test: Evaluation of the gastric-acid secretion inhibitory activity using rat (gastric outlet tied off); type: in vivo; details: dose of 0.3 mg/kg, subcutaneously
Description: Evaluation of the gastric-acid secretion inhibitory activity using rat.
After closing the laparotomy department, vehicle only (saline (Otsuka seishokuchu, Otsuka Pharmaceutical Factory, Inc.) or test compounds which were dissolved in vehicle were administered subcutaneously immediately, and the rats were recovered from anesthesia. After 2 hours from tying gastric outlet, the rats were treated with abdominal operation under isoflurane anesthesia again, pinched cardiac end of the stomach with forceps and exsanguinated to death. After stomach contents were centrifugalized at 500 g for 15 min. and the supernatant was separated as gastric fluid, the volume of gastric fluid was determined based on weight (mL/100 g BW). Furthermore, acid concentration of gastric fluid (mmol/mL) was determined by back titration using COM-1600ST automatic titrator (Hitachi High-Technologies Corporation (Hiranuma sangyo Co., Ltd.)).

[4] = target: somatostatin receptor subtype 1 (SSTR1) (Homo sapiens, UniProt P30872); details: reported in background art; cited from earlier work
[5] = target: somatostatin receptor subtype 3 (SSTR3) (Homo sapiens, UniProt P32745); details: reported in background art; cited from earlier work
[6] = target: somatostatin receptor subtype 4 (SSTR4) (Homo sapiens, UniProt P31391); details: reported in background art; cited from earlier work
[7] = target: somatostatin receptor subtype 2 (SSTR2) (Homo sapiens, UniProt P30874); details: reported in background art; cited from earlier work
[8] = 1 mg/kg orally, Procedure (B): administered 8 hours before

T1 sequence (P30874 whole entry): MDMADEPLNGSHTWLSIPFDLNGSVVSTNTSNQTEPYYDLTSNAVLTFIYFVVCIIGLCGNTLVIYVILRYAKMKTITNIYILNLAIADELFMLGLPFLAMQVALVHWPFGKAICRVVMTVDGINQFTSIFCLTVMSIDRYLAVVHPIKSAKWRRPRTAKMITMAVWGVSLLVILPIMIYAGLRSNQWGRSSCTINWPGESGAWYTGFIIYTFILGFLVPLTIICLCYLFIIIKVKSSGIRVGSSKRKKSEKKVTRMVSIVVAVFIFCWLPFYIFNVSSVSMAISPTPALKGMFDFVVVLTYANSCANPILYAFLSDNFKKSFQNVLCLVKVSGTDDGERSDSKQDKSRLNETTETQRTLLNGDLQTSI
Chain of somatostatin receptor subtype 1 (SSTR1) (P30872 whole entry, species assumed): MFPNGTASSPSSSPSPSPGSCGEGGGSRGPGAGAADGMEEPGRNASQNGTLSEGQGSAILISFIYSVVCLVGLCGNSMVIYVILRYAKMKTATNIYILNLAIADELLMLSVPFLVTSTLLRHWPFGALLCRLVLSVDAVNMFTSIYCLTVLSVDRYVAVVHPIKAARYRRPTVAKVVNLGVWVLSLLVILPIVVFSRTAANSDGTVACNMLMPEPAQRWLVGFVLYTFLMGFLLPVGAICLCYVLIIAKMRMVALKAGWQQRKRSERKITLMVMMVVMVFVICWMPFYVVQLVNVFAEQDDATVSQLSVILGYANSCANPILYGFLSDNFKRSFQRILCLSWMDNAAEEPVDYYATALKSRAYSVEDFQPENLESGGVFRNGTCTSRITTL
Chain of somatostatin receptor subtype 2 (SSTR2) (P30874 whole entry, species assumed): as the sequence (P30874 whole entry) above
Chain of somatostatin receptor subtype 3 (SSTR3) (P32745 whole entry, species assumed): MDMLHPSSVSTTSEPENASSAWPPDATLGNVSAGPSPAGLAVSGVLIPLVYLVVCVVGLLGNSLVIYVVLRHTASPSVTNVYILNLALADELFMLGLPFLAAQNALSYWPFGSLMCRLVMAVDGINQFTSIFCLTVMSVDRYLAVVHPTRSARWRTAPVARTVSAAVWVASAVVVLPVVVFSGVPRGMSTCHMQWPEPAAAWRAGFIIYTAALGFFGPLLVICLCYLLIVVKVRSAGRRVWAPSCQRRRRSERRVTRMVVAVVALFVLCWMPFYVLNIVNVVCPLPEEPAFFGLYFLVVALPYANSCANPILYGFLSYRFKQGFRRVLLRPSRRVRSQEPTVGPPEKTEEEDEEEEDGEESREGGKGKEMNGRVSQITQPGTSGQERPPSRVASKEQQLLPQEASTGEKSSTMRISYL
Chain of somatostatin receptor subtype 4 (SSTR4) (P31391 whole entry, species assumed): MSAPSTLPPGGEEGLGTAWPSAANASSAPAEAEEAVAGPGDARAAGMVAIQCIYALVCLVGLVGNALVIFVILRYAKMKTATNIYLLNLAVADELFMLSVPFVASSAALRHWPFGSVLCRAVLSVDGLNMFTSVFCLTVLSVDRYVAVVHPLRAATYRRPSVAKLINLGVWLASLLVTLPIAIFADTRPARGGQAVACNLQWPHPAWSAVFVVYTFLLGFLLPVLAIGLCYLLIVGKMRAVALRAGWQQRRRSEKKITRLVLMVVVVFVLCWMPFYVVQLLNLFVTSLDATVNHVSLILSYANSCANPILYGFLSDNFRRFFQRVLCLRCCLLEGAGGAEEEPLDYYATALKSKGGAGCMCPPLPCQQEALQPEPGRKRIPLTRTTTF

Cc1cc(F)cc(-c2cncc(/C=C/c3cncc(C#N)c3)c2N2CC[C@H]3NCCO[C@@H]3C2)c1 (racemic) [Example 36(8), 5-[(E)-2-{5-(3-fluoro-5-methylphenyl)-4-[rac-(4aR,8aR)-octahydro-6H-pyrido[3,4-b][1,4]oxazin-6-yl]-3-pyridinyl}vinyl]nicotinonitrile]
ratio of GH secretion inhibition [1, 8]: 83%
IC50 at 24 h [2]: 69 µM
ratio of IC50 (hepatocyte toxicity) divided by SSTR2 agonist activity (EC50) [3]: 2,030,000 times
EC50 (human SSTR2): 34 pM

Cc1cc(C)cc(NC(=O)c2cncc(-c3cc(C)cc(C)c3)c2N2CCC(CN)CC2)c1 [Example 2(20), 4-[4-(aminomethyl)-1-piperidinyl]-N,5-bis(3,5-dimethylphenyl)pyridine-3-carboxamide]
ratio of GH secretion inhibition ([1]; 3 mg/kg orally, Procedure (A): administered 30 min before): 97%
IC50 at 24 h [2]: 40 µM
ratio of IC50 (hepatocyte toxicity) divided by SSTR2 agonist activity (EC50) [3]: 6,670,000 times
ratio of gastric acid secretion inhibition (gastric acid secretion): 89%
EC50 (human SSTR2): 6 pM

Cc1cc(C)cc(-c2cncc(-c3ccc(C(F)(F)F)cc3)c2N2CCC(N)CC2)c1 [Example 26(15), 1-{3-(3,5-dimethylphenyl)-5-[4-(trifluoromethyl)phenyl]-4-pyridinyl}-4-piperidinamine]
ratio of GH secretion inhibition ([1]; 3 mg/kg orally, Procedure (B): administered 8 hours before): 92%

Cc1cc(F)cc(-c2cncc(-c3ccc(C(F)(F)F)cc3)c2N2CCC(N)CC2)c1 [Example 26(24), 1-{3-(3-fluoro-5-methylphenyl)-5-[4-(trifluoromethyl)phenyl]-4-pyridinyl}-4-piperidinamine]
ratio of GH secretion inhibition [1, 8]: 91%
IC50 at 24 h [2]: 35 µM
ratio of IC50 (hepatocyte toxicity) divided by SSTR2 agonist activity (EC50) [3]: 710,000 times
EC50 (human SSTR2): 49 pM

Cc1cc(F)cc(-c2cncc(/C=C/c3cccc(C#N)c3)c2N2CCC(N)CC2)c1 [Example 36(5), 3-{(E)-2-[4-(4-amino-1-piperidinyl)-5-(3-fluoro-5-methylphenyl)-3-pyridinyl]vinyl}benzonitrile]
ratio of GH secretion inhibition [1, 8]: 92%
IC50 at 24 h [2]: 19 µM
ratio of IC50 (hepatocyte toxicity) divided by SSTR2 agonist activity (EC50) [3]: 1,190,000 times
EC50 (human SSTR2): 16 pM

CC(C)[C@@H]1NC(=O)[C@H](CCCCN)NC(=O)[C@@H](Cc2c[nH]c3ccccc23)NC(=O)[C@H](Cc2ccc(O)cc2)NC(=O)[C@@H](NC(=O)[C@H](N)Cc2ccc3ccccc3c2)CSSC[C@@H](C(=O)N[C@H](C(N)=O)[C@@H](C)O)NC1=O [Lanreotide acetate]
binding to SSTR1 (in words) [4]: not to bind
binding affinity to SSTR3 (in words) [5]: moderate affinity
binding to SSTR4 (in words) [6]: not to bind
binding affinity to SSTR2 (in words) [7]: high affinity

Cc1cc(C)cc(-c2cnc3cc(Cl)c(-c4cnn(C)c4)cc3c2OCC[C@H]2CCCCN2)c1 [formula (M), reference compound]
IC50 at 24 h [2]: 13 µM
